Patent US10449162B2, “Delivery of drug nanoparticles and methods of use thereof” (DFB Soria, LLC, priority 2015, dated 2019)
Like-named read-outs stand apart in the source and are kept apart here. Values belong to the compound of their own block, whether it stands above or below them.

Tests used:
[1] = Particle size of paclitaxel nanoparticles lots (ACCUSIZER 780); type: physicochemical; details: number-weighted differential distribution; nanoparticle API lot
Procedure: Max. Concentration: 9000 particles/mL, No. containers: 1, Sensor Range: Summation, Lower Detection Limit: 0.5 μm, Flow Rate: 30 mL/min, No. Analysis pulls: 4, Time between pulls: 1 sec, Pull volume: 10 mL, Tare Volume: 1 mL, Prime volume: 1 mL, Include First Pull: Not Selected.
Vortexed for 5-10 minutes and sonicated in a water batch for 1 minute.
Filled a plastic bottle with filtered (0.22 μm) 0.1% w/w SDS solution and analyzed the Background.

[2] = Specific surface area (BET isotherm); type: physicochemical; details: lots used in the formulas
Procedure: (§1) As used herein, the “specific surface area (SSA)” is the total surface area of the taxane nanoparticle per unit of taxane mass as measured by the Brunauer-Emmett-Teller (“BET”) isotherm by the following method: a known mass between 200 and 300 mg of the analyte is added to a 30 mL sample tube. […] The automated test is then carried out using the BETWIN® software package and the surface area of each sample is subsequently calculated. The bulk density measurement can be conducted by pouring the taxane nanoparticles into a graduated cylinder without tapping at room temperature, measuring the mass and volume, and calculating the bulk density.

[3] = Bulk density (not tapped); type: physicochemical; details: lots used in the formulas
Procedure: as §1

[4] = Observation of paclitaxel nanoparticle crystals in various substances and solutions (light microscopy); type: physicochemical
[5] = Solubility of paclitaxel in various solvents (HPLC); type: physicochemical
Procedure: For each solvent, about 2 g of the solvent was weighed into a clear glass vial.
Each vial was mixed with a stir bar on a magnetic stirrer for 2 hours at room temperature.
Each vial was then checked every 1-2 hours to see if the solution became clear.

skin inflammation models = details: topical treatment; nonclinical evaluations; cited from earlier work
[6] = methanol/water 15/85 (v/v), 37° C., pH 7, USP Apparatus II 75 rpm, PCT/US16/35993, cited from earlier work
[7] = in Aluminum sulfate 0.1-0.2% in water, 7 days, RT
[8] = in Ammonium lauryl sulfate 2% in water, 3 days, RT
[9] = in Benzalkonium chloride (50%) 2% in water, 7 days & 21 days, RT
[10] = in CARBOPOL ULTREZ 10 (with Ammonium hydroxide as neutralizer) 0.5% in water, 8 days & 21 days, RT
[11] = in Castor Oil 100%, 24 hrs & 9 days, RT
[12] = in Dimethicone, 1000 cSt 100%, 24 hrs & 6 days, RT
[13] = in FOMBLIN HC04 100%, 4, 7 & 13 days, RT
[14] = in Hydroxyethyl cellulose 1% in water, 7 days, RT
[15] = in Hydroxypropyl methylcellulose 1% in water, 3 days, RT
[16] = in Lecithin 1% in water, 24 hrs, RT
[17] = in Light Mineral Oil NF 100%, 3 days, RT & 40 C.
[18] = in Magnesium nitrate 5% in water, 3 days, RT
[19] = in Mannitol 5% in water, 7 days, RT
[20] = in Mineral Oil USP (heavy) 100%, 3 days, RT & 40 C
[21] = in PEG 400 10% in water, 22 days, RT & 60 C.
[22] = in Poloxamer 188 2% in water, 7 days, RT
[23] = in Poloxamer 407 2% in water, 5 & 7 days, RT
[24] = in Polyoxyl 40 Hydrogenated Castor Oil (KOLLIPHOR RH40) 1% in water, 6 days, RT
[25] = in Polysorbate 80 0.5% in Saline, 7 days, RT & 60 C.
[26] = in Polysorbate 80 0.5% in water, 22 days, RT & 60 C.
[27] = in Povidone 1% in water, 7 days & 21 days, RT
[28] = in Proline 3% in water, 7 days, RT
[29] = in Purified Water 100%, 5 days, RT & 60 C.
[30] = in ST-Cyclomethicone 5 NF 100%, 24 hrs & 13 days, RT
[31] = in Saline 0.9% NaCl in water, 7 days, RT & 60 C.
[32] = in Sodium lauryl sulfate 2% in water, 7 days, RT
[33] = in Sodium phosphate monobasic 0.75% in water, 7 days, RT
[34] = in Sorbitol 5% in water, 7 days, RT
[35] = in Vitamin E TPGS 0.5% in water, 6 days, RT
[36] = in Zinc acetate […] in water, 7 days, RT

Particle size, Mean [1]: 0.861 μm
Particle size, Median [1]: 0.710 μm
Particle size, Mode [1]: 0.572 μm
Specific surface area (SSA) [2]: 41.24 m^2/g
Bulk density (not-tapped) [3]: 0.05 g/mL
SMILES: CC(=O)O[C@H]1C(=O)[C@@]2(C)[C@H]([C@H](OC(=O)c3ccccc3)[C@]3(O)C[C@H](OC(=O)[C@H](O)[C@@H](NC(=O)c4ccccc4)c4ccccc4)C(C)=C1C3(C)C)[C@]1(OC(C)=O)CO[C@@H]1C[C@@H]2O [Paclitaxel nanoparticles lot used in formulas listed in Tabl] [listing 1 of 2 here]

Particle size, Mean [1]: 0.83 μm
Specific surface area (SSA) [2]: 26.72 m^2/g
Bulk density (not-tapped) [3]: 0.09 g/mL
SMILES: CC(=O)O[C@H]1C(=O)[C@@]2(C)[C@H]([C@H](OC(=O)c3ccccc3)[C@]3(O)C[C@H](OC(=O)[C@H](O)[C@@H](NC(=O)c4ccccc4)c4ccccc4)C(C)=C1C3(C)C)[C@]1(OC(C)=O)CO[C@@H]1C[C@@H]2O [Paclitaxel nanoparticles lot used in formulas listed in Tabl] [listing 2 of 2 here]

Crystal size (light microscopy) [4, 7]: > 5 μm
Needle shaped crystals observed? (visual observation by light microscopy) [4, 7]: Yes
Crystal size (light microscopy) [4, 8]: > 5 μm
Needle shaped crystals observed? (visual observation by light microscopy) [4, 8]: Yes
Crystal size (light microscopy) [4, 9]: < 5 μm
Needle shaped crystals observed? (visual observation by light microscopy) [4, 9]: No
Crystal size (light microscopy) [4, 10]: < 5 μm
Needle shaped crystals observed? (visual observation by light microscopy) [4, 10]: No
Crystal size (light microscopy) [4, 11]: < 5 μm
Needle shaped crystals observed? (visual observation by light microscopy) [4, 11]: No
Crystal size (light microscopy) [4, 12]: < 5 μm
Needle shaped crystals observed? (visual observation by light microscopy) [4, 12]: No
Crystal size (light microscopy) [4, 13]: < 5 μm
Needle shaped crystals observed? (visual observation by light microscopy) [4, 13]: No
Crystal size (light microscopy) [4, 14]: > 5 μm
Needle shaped crystals observed? (visual observation by light microscopy) [4, 14]: Yes
Crystal size (light microscopy) [4, 15]: > 5 μm
Needle shaped crystals observed? (visual observation by light microscopy) [4, 15]: Yes
Crystal size (light microscopy) [4, 16]: > 10 μm
Needle shaped crystals observed? (visual observation by light microscopy) [4, 16]: Yes
Crystal size (light microscopy) [4, 17]: < 5 μm
Needle shaped crystals observed? (visual observation by light microscopy) [4, 17]: No
Crystal size (light microscopy) [4, 18]: > 5 μm
Needle shaped crystals observed? (visual observation by light microscopy) [4, 18]: Yes
Crystal size (light microscopy) [4, 19]: > 5 μm
Needle shaped crystals observed? (visual observation by light microscopy) [4, 19]: Yes
Crystal size (light microscopy) [4, 20]: < 5 μm
Needle shaped crystals observed? (visual observation by light microscopy) [4, 20]: No
Crystal size (light microscopy) [4, 21]: > 5 μm
Needle shaped crystals observed? (visual observation by light microscopy) [4, 21]: Yes
Crystal size (light microscopy) [4, 22]: > 5 μm
Needle shaped crystals observed? (visual observation by light microscopy) [4, 22]: Yes
Crystal size (light microscopy) [4, 23]: < 5 μm
Needle shaped crystals observed? (visual observation by light microscopy) [4, 23]: No
Crystal size (light microscopy) [4, 24]: < 5 μm
Needle shaped crystals observed? (visual observation by light microscopy) [4, 24]: Yes
Crystal size (light microscopy) [4, 25]: > 5 μm
Needle shaped crystals observed? (visual observation by light microscopy) [4, 25]: Yes
Crystal size (light microscopy) [4, 26]: < 5 μm
Needle shaped crystals observed? (visual observation by light microscopy) [4, 26]: Yes
Crystal size (light microscopy) [4, 27]: < 5 μm
Needle shaped crystals observed? (visual observation by light microscopy) [4, 27]: Yes
Crystal size (light microscopy) [4, 28]: > 5 μm
Needle shaped crystals observed? (visual observation by light microscopy) [4, 28]: Yes
Crystal size (light microscopy) [4, 29]: > 5 μm
Needle shaped crystals observed? (visual observation by light microscopy) [4, 29]: Yes
Crystal size (light microscopy) [4, 30]: < 5 μm
Needle shaped crystals observed? (visual observation by light microscopy) [4, 30]: No
Crystal size (light microscopy) [4, 31]: > 10 μm
Needle shaped crystals observed? (visual observation by light microscopy) [4, 31]: Yes
Crystal size (light microscopy) [4, 32]: > 5 μm
Needle shaped crystals observed? (visual observation by light microscopy) [4, 32]: Yes
Crystal size (light microscopy) [4, 33]: > 5 μm
Needle shaped crystals observed? (visual observation by light microscopy) [4, 33]: Yes
Crystal size (light microscopy) [4, 34]: > 5 μm
Needle shaped crystals observed? (visual observation by light microscopy) [4, 34]: Yes
Crystal size (light microscopy) [4, 35]: < 5 μm
Needle shaped crystals observed? (visual observation by light microscopy) [4, 35]: Yes
Crystal size (light microscopy) [4, 36]: > 5 μm
Needle shaped crystals observed? (visual observation by light microscopy) [4, 36]: Yes
Crystal growth ([4]; in any of the hydrophobic carriers): did not grow
Crystal growth ([4]; in aqueous solutions of benzalkonium chloride, CARBOPOL ULTREZ 10, or poloxamer 407): did not grow
SMILES: CC(=O)O[C@H]1C(=O)[C@@]2(C)[C@H]([C@H](OC(=O)c3ccccc3)[C@]3(O)C[C@H](OC(=O)[C@H](O)[C@@H](NC(=O)c4ccccc4)c4ccccc4)C(C)=C1C3(C)C)[C@]1(OC(C)=O)CO[C@@H]1C[C@@H]2O [Paclitaxel nanoparticles, paclitaxel]

Paclitaxel Solubility at RT ([5]; in Benzyl Alcohol, NF): 17.02% w/w
Paclitaxel Solubility at RT ([5]; in Diethylene Glycol Monoethyl Ether, NF (TRANSCUTOL P)): 33.10% w/w
Paclitaxel Solubility at RT ([5]; in Diisopropyl Adipate (CERAPHYL 230)): 3.51% w/w
Paclitaxel Solubility at RT ([5]; in Dimethyl Isosorbide): 38.22% w/w
Paclitaxel Solubility at RT ([5]; in Hexylene Glycol): 4.07% w/w
Paclitaxel Solubility at RT ([5]; in Isopropyl Myristate, NF): 0.048% w/w
Paclitaxel Solubility at RT ([5]; in Medium Chain Triglycerides, NF): 0.32% w/w
Paclitaxel Solubility at RT ([5]; in Mineral Oil, USP (heavy)): 0.3 ppm
Paclitaxel Solubility at RT ([5]; in Polyethylene Glycol 400, NF): 22.30% w/w
Paclitaxel Solubility at RT ([5]; in Propylene Carbonate): 4.74% w/w
Paclitaxel Solubility at RT ([5]; in Propylene Glycol, USP): 0.88% w/w
Paclitaxel Solubility at RT ([5]; in Purified Water, USP): <0.05 ppm
Paclitaxel Solubility at RT ([5]; in Purified Water, USP, listed as paclitaxel): less than 0.05 ppm
Paclitaxel Solubility at RT ([5]; in Super Refined Oleic Acid, NF): 0.041% w/w
Paclitaxel Solubility at RT ([5]; in Super Refined Oleyl Alcohol, NF): 0.38% w/w
SMILES: CC(=O)O[C@H]1C(=O)[C@@]2(C)[C@H]([C@H](OC(=O)c3ccccc3)[C@]3(O)C[C@H](OC(=O)[C@H](O)[C@@H](NC(=O)c4ccccc4)c4ccccc4)C(C)=C1C3(C)C)[C@]1(OC(C)=O)CO[C@@H]1C[C@@H]2O [Paclitaxel, paclitaxel]
Effect in skin inflammation models (skin inflammation models): reduced inflammation, swelling, and erythema

SMILES: CC(=O)O[C@@]12CO[C@@H]1C[C@H](O)[C@@]1(C)C(=O)[C@H](O)C3=C(C)[C@@H](OC(=O)[C@H](O)[C@@H](NC(=O)OC(C)(C)C)c4ccccc4)C[C@@](O)([C@@H](OC(=O)c4ccccc4)[C@H]21)C3(C)C [docetaxel nanoparticles produced by milling] [reference compound]
Dissolution rate, % dissolved in 30 minutes ([6]; listed as docetaxel nanoparticles made by milling): 9%

SMILES: CC(=O)O[C@@]12CO[C@@H]1C[C@H](O)[C@@]1(C)C(=O)[C@H](O)C3=C(C)[C@@H](OC(=O)[C@H](O)[C@@H](NC(=O)OC(C)(C)C)c4ccccc4)C[C@@](O)([C@@H](OC(=O)c4ccccc4)[C@H]21)C3(C)C [docetaxel nanoparticles, docetaxel]
Dissolution rate, % dissolved in 30 minutes [6]: 27%
